Data taken from patent US20260306644A1, “ANTIBODY RECRUITING MOLECULES FOR THE TREATMENT OF CORONAVIRUS DISEASE-19” (priority 2023, published 2026).
pEC50, pIC50: −log10 of the molar value.

How the values were obtained:
SARS-CoV-2 Spike protein = SARS-CoV-2 Spike protein (Severe acute respiratory syndrome coronavirus 2, UniProt P0DTC2); assay: Ternary binding of SARS-CoV-2 Spike protein (293T cells expressing Spike-GFP, IgG-AF647, flow cytometry); type: cell-based; conditions: 293T cells expressing Spike-GFP; IgG-AF647 10 μg/ml; repeat values/batches listed separately; read-out: SARS-CoV-2 Ternary binding EC50
Method: 293T cells stably expressing SARS-CoV-2 Spike-GFP protein on their surface were incubated with a concentration range of compound for 30 minutes at 37° C.-5% CO2 in Roswell Park Memorial Institute Medium (RPMI)-5% low IgG serum with 10 μg/ml IgG-Alexa Fluor® 647 (AF647). The cells were washed twice using the same medium, resuspended in phosphate-buffered saline (PBS)-1% bovine serum albumin (BSA), and acquired on Attune™ NxT Flow Cytometer. In some embodiments, mean fluorescence intensity of AF647 as well as […] AF647 positive in GFP positive gate are reported as readouts in this assay.

[1] = target: T1, SARS-CoV-2 Spike A (wild-type) (Severe acute respiratory syndrome coronavirus 2, UniProt P0DTC2); assay: MSD ACE2 competition assay (inhibition of Spike binding with ACE2, ECL), A (wild-type); conditions: IC50 Wild Type, Wild Type Spike
T1 construct: purchased Meso Scale Diagnostics, LLC V-PLEX SARS-CoV-2 Panel 13 (ACE2) Kit / Panel 23 (ACE2) Kit

SMILES | pEC50 (SARS-CoV-2 Spike protein) | pIC50 [1]
CC[C@H](C)[C@H](NC(=O)[C@H](CC(C)C)NC(=O)[C@H](CC(=O)O)NC(=O)[C@H](CO)NC(=O)[C@@H](NC(=O)[C@H](CCCNC(=N)N)NC(=O)[C@H](CCSC)NC(=O)[C@H](CO)NC(=O)[C@H](C)NC(=O)[C@H](CCC(=O)O)NC(=O)[C@H](C)NC(=O)[C@H](Cc1c[nH]cn1)NC(=O)CNC(=O)[C@H](CC(C)C)NC(=O)[C@H](CCC(=O)O)NC(=O)[C@H](CC(=O)O)NC(=O)[C@H](CC(C)C)NC(=O)[C@H](CC(C)C)NC(=O)[C@H](CCCNC(=N)N)NC(=O)[C@H](CCSC)NC(=O)[C@@H](NC(=O)[C@H](CCC(=O)O)NC(=O)[C@H](Cc1ccc(O)cc1)NC(=O)[C@@H](NC(=O)[C@H](CCCCN)NC(=O)[C@H](CCC(N)=O)NC(=O)[C@H](CC(C)C)NC(=O)[C@@H](NC(=O)[C@H](Cc1c[nH]c2ccccc12)NC(=O)[C@H](CCC(=O)O)NC(=O)[C@H](CCCCN)NC(=O)[C@H](CC(=O)O)NC(C)=O)[C@@H](C)CC)[C@@H](C)CC)[C@@H](C)CC)C(C)C)C(=O)N[C@@H](Cc1ccc(O)cc1)C(=O)N[C@@H](CCC(=O)O)C(=O)N[C@@H](Cc1ccccc1)C(=O)N[C@@H](CCSC)C(=O)N[C@@H](CCCCN)C(=O)N[C@@H](CCCCN)C(=O)NCC(=O)O [Compound 103] | < 8.00 | 8.21
CC[C@H](C)[C@H](NC(=O)[C@H](CC(C)C)NC(=O)[C@H](CC(=O)O)NC(=O)[C@H](CO)NC(=O)[C@@H](NC(=O)[C@H](CCCNC(=N)N)NC(=O)[C@H](CCSC)NC(=O)[C@H](CO)NC(=O)[C@H](C)NC(=O)[C@H](CCC(=O)O)NC(=O)[C@H](C)NC(=O)[C@H](Cc1c[nH]cn1)NC(=O)CNC(=O)[C@H](CC(C)C)NC(=O)[C@H](CCC(=O)O)NC(=O)[C@H](CC(=O)O)NC(=O)[C@H](CC(C)C)NC(=O)[C@H](CC(C)C)NC(=O)[C@H](CCCNC(=N)N)NC(=O)[C@H](CCSC)NC(=O)[C@@H](NC(=O)[C@H](CCC(=O)O)NC(=O)[C@H](Cc1ccc(O)cc1)NC(=O)[C@@H](NC(=O)[C@H](CCCCN)NC(=O)[C@H](CCC(N)=O)NC(=O)[C@H](CC(C)C)NC(=O)[C@@H](NC(=O)[C@H](Cc1c[nH]c2ccccc12)NC(=O)[C@H](CCC(=O)O)NC(=O)[C@H](CCCCN)NC(=O)[C@H](CC(=O)O)NC(=O)CCOCCOCCOCCOCCNC(=O)CCCC[C@@H]1SC[C@@H]2NC(=O)N[C@@H]21)[C@@H](C)CC)[C@@H](C)CC)[C@@H](C)CC)C(C)C)C(=O)N[C@@H](Cc1ccc(O)cc1)C(=O)N[C@@H](CCC(=O)O)C(=O)N[C@@H](Cc1ccccc1)C(=O)N[C@@H](CCSC)C(=O)N[C@@H](CCCCN)C(=O)N[C@@H](CCCCN)C(=O)NCC(=O)O [Compound 209] | 8.96 | –
